From paper PMC10155618 (Beilstein Journal of Organic Chemistry, 2023)

Tests used:
[1] = molecular target: T1, human DPP III (dipeptidyl peptidase III, DPPIII), inactive mutant E451A (Homo sapiens, UniProt Q9NY33, E451A); assay: isothermal titration calorimetry, one set of sites, N fixed to […]; assay type: binding; settings: read-out: log Ka (converted)
T1 construct: gene DPP3; recombinant, heterologous expression in Escherichia coli, purified according to Spoljaric et al; mono-zinc metalloexopeptidase
T1 sequence (Q9NY33 2-737 E451A): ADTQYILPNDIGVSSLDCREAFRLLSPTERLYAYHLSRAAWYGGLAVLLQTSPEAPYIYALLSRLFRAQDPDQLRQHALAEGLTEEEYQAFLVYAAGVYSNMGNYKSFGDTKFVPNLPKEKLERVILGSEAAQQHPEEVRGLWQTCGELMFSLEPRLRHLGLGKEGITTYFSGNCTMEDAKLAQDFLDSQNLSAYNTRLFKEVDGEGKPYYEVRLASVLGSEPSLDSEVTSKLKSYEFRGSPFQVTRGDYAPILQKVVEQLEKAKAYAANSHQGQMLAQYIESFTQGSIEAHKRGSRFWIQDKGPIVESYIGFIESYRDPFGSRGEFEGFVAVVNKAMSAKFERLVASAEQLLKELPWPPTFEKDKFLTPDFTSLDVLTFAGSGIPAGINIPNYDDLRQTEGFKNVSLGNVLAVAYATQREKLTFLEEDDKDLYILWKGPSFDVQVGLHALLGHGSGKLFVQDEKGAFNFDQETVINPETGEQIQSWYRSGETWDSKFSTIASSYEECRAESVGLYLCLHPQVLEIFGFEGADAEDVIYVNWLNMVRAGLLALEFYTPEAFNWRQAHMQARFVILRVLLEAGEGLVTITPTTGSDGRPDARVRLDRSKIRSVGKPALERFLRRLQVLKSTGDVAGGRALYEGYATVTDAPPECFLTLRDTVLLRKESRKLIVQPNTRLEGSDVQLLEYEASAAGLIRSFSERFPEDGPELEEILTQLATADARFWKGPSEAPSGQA

[2] = system: poly rA–poly rU (RNA, polymer) A/U; assay: UV thermal melting, 260 nm; settings: Na+ (sodium cacodylate, Ic = 0.05 mol dm^-3); Na cacodylate pH 7.0; negligible stabilisation; error ±0.5 °C; per base
[3] = system: poly dAdT–poly dAdT (DNA, polymer) AT; assay: fluorimetric titration, Scatchard/Global Fit; settings: Na+ (sodium cacodylate, Ic = 0.05 mol dm^-3); Na cacodylate pH 7.0; compound 1–2 × 10^-6 M; n fixed 0.2; polynucleotide as phosphates; per base
[4] = system: poly dGdC–poly dGdC (DNA, polymer) GC; assay: fluorimetric titration, Scatchard/Global Fit; settings: Na+ (sodium cacodylate, Ic = 0.05 mol dm^-3); Na cacodylate pH 7.0; compound 1–2 × 10^-6 M; n fixed 0.2; polynucleotide as phosphates; per base
[5] = system: poly rA–poly rU (RNA, polymer) A/U; assay: fluorimetric titration, Scatchard/Global Fit; settings: Na+ (sodium cacodylate, Ic = 0.05 mol dm^-3); Na cacodylate pH 7.0; compound 1–2 × 10^-6 M; n fixed 0.2; polynucleotide as phosphates; per base

Row | Compound | Kd [1] [µM] | ΔTm [2] [°C] | log Ka [3] | log Ka [4] | log Ka [5]
1 | COC(=O)[C@H](Cc1ccc2c(c1)c(C)nc1ccccc12)NC(=O)CCCc1ccc2ccc3cccc4ccc1c2c34 [Phen-Py-1] | 3.39 | < 0.5 | 5.97 | 6.87 | 7.07
2 | COC(=O)[C@H](Cc1ccc2c(c1)c(C)nc1ccccc12)NC(=O)c1ccc2ccc3cccc4ccc1c2c34 |  | < 0.5 |  |  | 
